5 molecules from US12139520B2 (priority 2020, dated 2024) can be followed below.

Structures are written as SMILES. Bridge positions count the residues as written; N and C are the ends. Square brackets hold non-standard residues; d marks the D form. Peptide text beside a SMILES is read from it. Hyp = O=C(O)[C@@H]1C[C@@H](O)CN1; Cit = NC(=O)NCCC[C@H](N)C(=O)O Some results are limits rather than exact numbers.

In one data set the target is T1, hAMY3 receptor (Homo sapiens, UniProt O60896+P30988).
T1 sequence (P30988 25-474): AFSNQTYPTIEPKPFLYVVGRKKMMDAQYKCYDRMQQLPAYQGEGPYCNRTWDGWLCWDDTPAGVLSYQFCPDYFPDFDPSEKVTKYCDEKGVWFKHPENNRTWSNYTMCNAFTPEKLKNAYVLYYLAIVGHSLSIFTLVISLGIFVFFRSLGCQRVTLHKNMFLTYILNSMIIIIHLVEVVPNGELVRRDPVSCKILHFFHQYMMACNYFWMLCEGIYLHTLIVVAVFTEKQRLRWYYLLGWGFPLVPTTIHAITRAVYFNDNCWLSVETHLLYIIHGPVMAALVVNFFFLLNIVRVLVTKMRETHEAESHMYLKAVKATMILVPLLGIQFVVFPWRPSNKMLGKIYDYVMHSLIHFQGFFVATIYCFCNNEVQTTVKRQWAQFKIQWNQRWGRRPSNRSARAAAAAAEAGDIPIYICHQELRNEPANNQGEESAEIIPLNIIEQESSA
T1 sequence (O60896 24-148 partner): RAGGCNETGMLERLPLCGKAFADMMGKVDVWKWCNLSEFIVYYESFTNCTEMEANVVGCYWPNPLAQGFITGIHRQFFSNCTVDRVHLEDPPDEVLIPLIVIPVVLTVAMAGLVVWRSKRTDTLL
Nature of the data set: cAMP assay for in vitro receptor activation, hAMY3-R. The conditions noted are these: cAMP assay, hAMY3 receptor; read-out: hAMY3R EC50. The data set is classed as cell-based. Summed up:
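Monoclonal cell line stably overexpressing human AMY3 receptor, 2000 cells/well in DPBS with 0.05% casein and 0.5 mM IBMX. Stimulated 30 min at room temperature with graded compound doses, human amylin as positive control. cAMP accumulation read by TR-FRET after one hour.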

A short description of data set [1]: Physical stability of peptide analogues (Thioflavin T fibrillation). The conditions noted are these: maximum ThT signal normalized between hAMY maximum and buffer background; 40° C., shaking, four days; pH 7 per table title. The data set is classed as physicochemical. Summed up:
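1 h in 50 mM NaOAc pH 4 / 50 mM NaPi pH 7; + ThT 4 μM final; 40 °C, 700 rpm linear shake 5 min pre-read; ex 450, em 480 nm q10 min × 4 d; LOESS smoothing; max signal normalised to hAMY max vs buffer blank.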

Another data set addresses hAM1 receptor (Homo sapiens, UniProt O60895+Q16602). The data set is described as follows: cAMP assay for in vitro receptor activation, hAM1-R. The conditions noted are these: cAMP assay, hAM1 receptor; read-out: hAM1R EC50. The data set is classed as cell-based. In outline: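 cAMP accumulation was measured in a monoclonal cell line stably overexpressing the hAM1 receptor. Frozen aliquots were thawed and plated at 8000 cells/well in DPBS containing 0.05% casein and 0.5 mM IBMX.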

hAM1 receptor, sequence (Q16602 23-461): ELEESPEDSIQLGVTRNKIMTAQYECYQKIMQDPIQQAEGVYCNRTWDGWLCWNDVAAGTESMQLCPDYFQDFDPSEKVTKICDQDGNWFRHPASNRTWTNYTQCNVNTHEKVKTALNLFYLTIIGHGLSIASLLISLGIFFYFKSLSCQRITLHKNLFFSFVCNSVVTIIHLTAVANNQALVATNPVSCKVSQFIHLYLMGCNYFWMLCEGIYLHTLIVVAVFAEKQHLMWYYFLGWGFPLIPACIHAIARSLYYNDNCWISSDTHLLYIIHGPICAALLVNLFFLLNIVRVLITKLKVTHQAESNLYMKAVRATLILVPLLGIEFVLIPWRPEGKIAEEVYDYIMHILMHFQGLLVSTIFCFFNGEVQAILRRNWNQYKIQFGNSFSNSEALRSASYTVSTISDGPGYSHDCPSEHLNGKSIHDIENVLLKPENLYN
hAM1 receptor, sequence (O60895 43-175 partner): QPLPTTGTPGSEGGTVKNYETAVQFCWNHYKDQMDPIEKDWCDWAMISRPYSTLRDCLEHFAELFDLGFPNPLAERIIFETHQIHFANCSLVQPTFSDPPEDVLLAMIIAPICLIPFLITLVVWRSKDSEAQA

As to `CC[C@H](C)[C@H](NC(=O)[C@H](CCC(N)=O)NC(=O)[C@H](Cc1c[nH]cn1)NC(=O)[C@H](C)NC(=O)[C@H](CC(C)C)NC(=O)[C@H](CCCNC(=N)N)NC(=O)[C@H](CCC(N)=O)NC(=O)[C@@H](NC(=O)[C@@H](NC(=O)[C@@H]1CSSC[C@H](NC(=O)CN)C(=O)N[C@@H](CCCNC(=N)N)C(=O)N[C@@H]([C@@H](C)O)C(=O)NCC(=O)N[C@@H]([C@@H](C)O)C(=O)N1)[C@@H](C)O)C(C)C)C(=O)N[C@@H](Cc1ccc(O)cc1)C(=O)N[C@@H](CCC(N)=O)C(=O)N[C@@H](Cc1ccccc1)C(=O)N[C@H](C(=O)N[C@@H](CC(N)=O)C(=O)N[C@@H](CCCCN)C(=O)N[C@@H](CC(=O)O)C(=O)N[C@@H](CCCCN)C(=O)N[C@@H](CC(=O)O)C(=O)N[C@@H](CC(N)=O)C(=O)N[C@H](C(=O)N[C@@H](C)C(=O)N1CCC[C@H]1C(=O)N[C@@H](CCCNC(=N)N)C(=O)N[C@@H](CO)C(=O)N[C@@H](CCCCN)C(=O)N[C@H](C(=O)N[C@@H](CO)C(=O)N1CCC[C@H]1C(=O)N[C@@H](CCC(N)=O)C(=O)N[C@@H](Cc1ccccc1)C(=O)N1C[C@H](O)C[C@H]1C(N)=O)[C@@H](C)CC)C(C)C)[C@@H](C)O` [compound 238] (H-GCRTGTCTVQRLAHQIYQFTNKDKDNVAPRSKISPQF[Hyp]-NH2; disulfide 2-7; N-terminus assumed), the results for the EC50 at hAMY3 receptor and on hAM1 receptor were 0.235 nM and more than 5000 nM, respectively. Moreover, the “Max ThT signal (%)” value in data set [1] turned out to be 0.600%.

On to `CC[C@H](C)[C@H](NC(=O)[C@H](CCC(N)=O)NC(=O)[C@H](Cc1c[nH]cn1)NC(=O)[C@H](C)NC(=O)[C@H](CC(C)C)NC(=O)[C@H](CCCNC(=N)N)NC(=O)[C@H](CCC(N)=O)NC(=O)[C@@H](NC(=O)[C@@H](NC(=O)[C@@H]1CSSC[C@H](NC(=O)CN)C(=O)N[C@@H](CCCNC(=N)N)C(=O)N[C@@H](Cc2c[nH]c3ccccc23)C(=O)NCC(=O)N[C@@H]([C@@H](C)O)C(=O)N1)[C@@H](C)O)C(C)C)C(=O)N[C@@H](Cc1ccc(O)cc1)C(=O)N[C@@H](CCC(N)=O)C(=O)N[C@@H](Cc1ccccc1)C(=O)N[C@H](C(=O)N[C@@H](CC(=O)O)C(=O)N[C@@H](CCCCN)C(=O)N[C@@H](CC(=O)O)C(=O)N[C@@H](CCCCN)C(=O)N[C@@H](CC(=O)O)C(=O)N[C@@H](CC(N)=O)C(=O)N[C@H](C(=O)N[C@@H](C)C(=O)N1CCC[C@H]1C(=O)N[C@@H](CCCNC(=N)N)C(=O)N[C@@H](CO)C(=O)N[C@@H](CCCCN)C(=O)N[C@H](C(=O)N[C@@H](CO)C(=O)N1CCC[C@H]1C(=O)N[C@@H](CCC(N)=O)C(=O)N[C@H](C(=O)N1C[C@H](O)C[C@H]1C(N)=O)[C@@H](C)O)[C@@H](C)CC)C(C)C)[C@@H](C)O` [compound 150] (H-GCRWGTCTVQRLAHQIYQFTDKDKDNVAPRSKISPQT[Hyp]-NH2; disulfide 2-7; N-terminus assumed), for which the EC50 at hAMY3 receptor was 0.04 nM; on hAM1 receptor, more than 5000 nM. The “Max ThT signal (%)” value in data set [1] was found to be 18.200%.

Regarding `CC[C@H](C)[C@H](NC(=O)[C@H](CCC(N)=O)NC(=O)[C@H](Cc1c[nH]cn1)NC(=O)[C@H](C)NC(=O)[C@H](CC(C)C)NC(=O)[C@H](CCCNC(=N)N)NC(=O)[C@H](CCC(N)=O)NC(=O)[C@@H](NC(=O)[C@@H](NC(=O)[C@@H]1CSSC[C@H](NC(=O)CN)C(=O)N[C@@H](CCCNC(=N)N)C(=O)N[C@@H](Cc2c[nH]c3ccccc23)C(=O)NCC(=O)N[C@@H]([C@@H](C)O)C(=O)N1)[C@@H](C)O)C(C)C)C(=O)N[C@@H](Cc1ccc(O)cc1)C(=O)N[C@@H](CCC(N)=O)C(=O)N[C@@H](Cc1ccccc1)C(=O)N[C@H](C(=O)N[C@@H](CC(=O)O)C(=O)N[C@@H](CCCCN)C(=O)N[C@@H](Cc1ccccc1)C(=O)N[C@@H](CCCCN)C(=O)N[C@@H](CC(=O)O)C(=O)N[C@@H](CC(N)=O)C(=O)N[C@H](C(=O)N[C@@H](C)C(=O)N1CCC[C@H]1C(=O)N[C@@H](CCCNC(=N)N)C(=O)N[C@@H](CO)C(=O)N[C@@H](CCCCN)C(=O)N[C@H](C(=O)N[C@@H](CO)C(=O)N1CCC[C@H]1C(=O)N[C@@H](CCC(N)=O)C(=O)N[C@H](C(=O)N1C[C@H](O)C[C@H]1C(N)=O)[C@@H](C)O)[C@@H](C)CC)C(C)C)[C@@H](C)O` [compound 171] (H-GCRWGTCTVQRLAHQIYQFTDKFKDNVAPRSKISPQT[Hyp]-NH2; disulfide 2-7; N-terminus assumed), the EC50 on hAMY3 receptor was 0.064 nM; at hAM1 receptor, more than 5000 nM. In addition, the “Max ThT signal (%)” value in data set [1] was 5.000%.

`CC[C@H](C)[C@H](NC(=O)[C@H](CCC(N)=O)NC(=O)[C@H](Cc1c[nH]cn1)NC(=O)[C@H](C)NC(=O)[C@H](CC(C)C)NC(=O)[C@H](CCCNC(N)=O)NC(=O)[C@H](CCC(N)=O)NC(=O)[C@@H](NC(=O)[C@@H](NC(=O)[C@@H]1CSSC[C@H](NC(=O)CN)C(=O)N[C@@H](CCCNC(=N)N)C(=O)N[C@@H]([C@@H](C)O)C(=O)NCC(=O)N[C@@H]([C@@H](C)O)C(=O)N1)[C@@H](C)O)C(C)C)C(=O)N[C@@H](Cc1ccc(O)cc1)C(=O)N[C@@H](CCC(N)=O)C(=O)N[C@@H](Cc1ccccc1)C(=O)N[C@H](C(=O)N[C@@H](CC(=O)O)C(=O)N[C@@H](CCCCN)C(=O)N[C@@H](CC(=O)O)C(=O)N[C@@H](CCCCN)C(=O)N[C@@H](CC(=O)O)C(=O)N[C@@H](CC(N)=O)C(=O)N[C@H](C(=O)N[C@@H](C)C(=O)N1CCC[C@H]1C(=O)N[C@@H](CCCNC(=N)N)C(=O)N[C@H](C(=O)N[C@@H](CC(N)=O)C(=O)N[C@H](C(=O)NCC(=O)N1CCC[C@H]1C(=O)N[C@@H](CCC(N)=O)C(=O)NCC(=O)N1C[C@H](O)C[C@H]1C(N)=O)C(C)C)[C@@H](C)O)C(C)C)[C@@H](C)O` [compound 261] (H-GCRTGTCTVQ[Cit]LAHQIYQFTDKDKDNVAPRTNVGPQG[Hyp]-NH2; disulfide 2-7; N-terminus assumed): the EC50 at hAMY3 receptor was 0.018 nM; at hAM1 receptor, more than 5000 nM. The “Max ThT signal (%)” value in data set [1] came out at 22.650%.

For the molecule `CC[C@H](C)[C@H](NC(=O)[C@H](CCC(N)=O)NC(=O)[C@H](Cc1c[nH]cn1)NC(=O)[C@H](C)NC(=O)[C@H](CC(C)C)NC(=O)[C@H](Cc1c[nH]c2ccccc12)NC(=O)[C@H](CCC(N)=O)NC(=O)[C@@H](NC(=O)[C@@H](NC(=O)[C@@H]1CSSC[C@H](NC(=O)[C@@H](N)CCCCN)C(=O)N[C@@H](CC(N)=O)C(=O)N[C@@H]([C@@H](C)O)C(=O)N[C@@H](C)C(=O)N[C@@H]([C@@H](C)O)C(=O)N1)[C@@H](C)O)C(C)C)C(=O)N[C@@H](C)C(=O)N[C@@H](CCC(N)=O)C(=O)N[C@@H](Cc1ccccc1)C(=O)N[C@H](C(=O)N[C@@H](CC(=O)O)C(=O)N[C@@H](CCCCN)C(=O)N[C@@H](CC(=O)O)C(=O)N[C@@H](CCCCN)C(=O)N[C@@H](CC(=O)O)C(=O)N[C@@H](CC(N)=O)C(=O)N[C@H](C(=O)N[C@@H](C)C(=O)N1CCC[C@H]1C(=O)N1CCC[C@H]1C(=O)N[C@H](C(=O)N[C@@H](CC(N)=O)C(=O)N[C@H](C(=O)NCC(=O)N[C@@H](CO)C(=O)N[C@@H](CC(N)=O)C(=O)NCC(=O)N1C[C@H](O)C[C@H]1C(N)=O)C(C)C)[C@@H](C)O)C(C)C)[C@@H](C)O` [compound 309] (H-KCNTATCTVQWLAHQIAQFTDKDKDNVAPPTNVGSNG[Hyp]-NH2; disulfide 2-7; N-terminus assumed), the EC50 is 0.025 nM on hAMY3 receptor and more than 5000 nM at hAM1 receptor. Besides, the “Max ThT signal (%)” value in data set [1] is given as 4.250%.
